{"source": "paper PMC5073322", "about": "“Novel Natural Product-like Caged Xanthones Bearing a Carbamate Moiety Exhibit Antitumor Potency and Anti-Angiogenesis Activity In vivo” (Scientific Reports, 2016)", "key": {"[1]": {"tested_on": "HUVECs", "assay": "Wound healing assay (hypoxia-induced migration)", "type": "cell-based, human", "settings": "0.01, 0.05 and 0.25 μM, 24 h", "protocol": "GA was reported to inhibit tumour angiogenesis and may be a viable drug candidate for anti-angiogenesis and anticancer therapies. Therefore, the anti-angiogenesis activity of the caged xanthone derivative 8n was evaluated. Human umbilical vein endothelial cells (HUVECs) were used in all experiments. Cell migration is critical for endothelial cells to form blood vessels during angiogenesis, tumour growth and metastasis. […] Endothelial cell invasion is a critical part of angiogenesis; therefore, a transwell assay was performed to evaluate the ability of inactivated HUVECs to pass through the transwell membrane barrier in the presence of 8n.\nFigure 8 8n had anti-angiogenesis activity in vitro and in vivo. (A) A wound-healing assay was used to evaluate the motility of HUVECs after treatment with 8n for 24 h. (B) Changes in cell motility were evaluated using a transwell assay of cell migration and invasion. (C) The effect of 8n on tube formation by HUVECs. HUVECs were incubated with 8n for 6 h and then transferred to Matrigel for 6 h. (D) Zebrafish embryos treated with blank control or 1, 10, or 50 μg/ml of 8n.\nHUVECs were incubated in a 6-well plate until full confluence. […] Then, the wound edges were photographed under an inverted-phase microscope and measured."}, "[2]": {"tested_on": "HCT116", "assay": "MTT antiproliferative assay, HCT116", "settings": "read-out: IC50 HCT116; MTT, 72 h", "procedure": "The inhibition of tumour cell growth was measured by a modified tetrazolium (MTT) salt assay, as previously described[39]. Cells were cultured in a 96-well plate and treated with culture medium alone or different concentrations of the compounds. The cells were incubated for 72 h, and then, the MTT assay reagent was added. After a 4 h incubation, the formazan product was quantitated at 570 nm. The IC50 values (the concentrations that gave rise to 50% inhibition of cell viability) were calculated using GraphPad Prism 6 using a variable slope (four parameters)."}, "[3]": {"tested_on": "zebrafish embryos (intersegmental vessels)", "assay": "In vivo fluorescent zebrafish angiogenesis assay", "settings": "24 h", "protocol": "Zebrafish has been proposed as a valid alternative animal model for investigating angiogenesis. The effect of 8n on embryonic angiogenesis in zebrafish was evaluated.\nTransgenic zebrafish (VEGFR2: GFP) embryos were supplied using the drug screening platform of the Shandong Academy of Sciences Institute; they were grown and maintained according to the same protocols. The screen was carried out in 24-well plates. Compounds were prepared initially as a 10 mg/mL stock solution in dimethyl sulfoxide (DMSO). The stock solution was diluted to the relevant assay concentration with fish water, and 0.5% DMSO served as a vehicle control. The embryos were distributed in 24-well plates, with 10 embryos placed in each well. Then, a diluted solution of each compound was added. The embryos were exposed to the compound solution and incubated at 28.5 °C. After 24 h, the zebrafish were anesthetized with 0.01% tricaine and imaged under a fluorescence microscope (Olympus, Inc.) equipped with a SZX16 microscope and a DP2-BSW digital camera (Olympus, Inc.). The animal experiments were performed in accordance with the approval of the Chinese Academy of Medical Sciences and the Biology Institute of Shandong Academy of Sciences. All studies were performed in accordance with the approved guidelines from the China Zebrafish Resource Center with the approved protocol number of 2012CB944504."}, "[4]": {"assay": "Water solubility by HPLC", "type": "physicochemical", "settings": "deionized water, stirred overnight, HPLC 290 nm", "from_the_text": "The physicochemical characteristics of compounds directly determine their potential drug-like properties. Assessing a compound’s physicochemical properties before performing in vivo evaluations can guide further studies and minimize the time and cost associated with drug discovery. Therefore, parallel to the in vivo study, these solubilities of these compounds in water were experimentally measured using high-performance liquid chromatography (HPLC). Based on the results of full wave scanning, 290 nm was chosen as the maximum absorption wavelength for HPLC detection.\nA HPLC system with an ultraviolet (UV) detector was used to detect the solubility of the compounds. The optimal wavelength was 290 nm. Ethanol/water (85:15) was an efficient eluent at a flow rate of 0.5 mL/min. The compounds were stirred in deionized water overnight to maximize the retention of the compounds in solution. Then, the solutions were filtered and the supernatant was used as a fluid sample for HPLC detection. The permeability (Pe) of some of the compounds was tested with the help of a standard PAMPA (pION), as previously reported. PAMPA was performed on a PAMPA Explorer instrument (pION, Inc., Woburn, MA) with the PAMPA Explorer command software (Version 3.7.4.1). The compounds were diluted to 10 mM with the system solution buffer (pH 7.4). Then, 150 μL of the diluted compound solution was transferred to a UV plate, and the UV spectrum was collected and used as a reference. Then, paint the membrane with 5 μL of gastrointestinal tract (GIT) lipid. The acceptor chamber was filled with 200 μL of acceptor solution buffer, and the donor chamber was filled with 200 μL of diluted compound solution. The PAMPA sandwich was assembled and left at 25 °C for 4 h. The UV spectra (240–500 nm) from the donor and the acceptor were collected. The permeability coefficient was calculated with the PAMPA Explorer Command software (Version 3.7.4.1) based on the area under the curve (AUC) of the reference plate, the donor plate, and the acceptor plate. The permeability coefficient of the compound was tested for four times, and the data are shown as the average values. Ketoprofen (4.5×10^−6 cm/s) and propranolol (112.8×10^−6 cm/s) were used as the standards in this assay."}}}
{"compound": "CC(C)=CCC12OC(C)(C)C3CC(C=C4C(=O)c5c(OC(=O)N6CCC(N7CCCCC7)CC6)cccc5OC431)C2=O", "note": "(centres unmarked) [Compound 8n]", "values": [{"measurement": "hypoxia-induced migration of HUVECs", "setting": "[1]", "value": "suppressed hypoxia-induced migration in a concentration-dependent manner"}, {"measurement": "IC50", "setting": "[2]", "value": "970 ± 120", "unit": "nM"}, {"measurement": "formation of intersegmental vessels", "setting": "[3]; 10 μg/ml or 5 μg/ml", "value": "considerably inhibited"}, {"measurement": "formation of intersegmental vessels", "setting": "[3]; 50 μg/ml", "value": "completely blocked"}, {"measurement": "S, water solubility", "setting": "[4]", "value": ">40", "unit": "mM"}]}
